# Measured values published in patent US20100048462A1, “TRUNCATED PTH PEPTIDES WITH A CYCLIC CONFORMATION” (Zealand Pharma A/S, priority 2006, published 2010).
# Bridge positions count the residues as written; N and C are the ends. Square brackets hold non-standard residues; d marks the D form. Peptide text beside a SMILES is read from it. hArg = N=C(N)NCCCC[C@H](N)C(=O)O; Ac5c = NC1(C(=O)O)CCCC1; Dab = NCC[C@H](N)C(=O)O; Aib = CC(C)(N)C(=O)O
# Columns and labels:
# Saos-2 PTH1R [1] = molecular target: T1, Saos-2 PTH1R (Homo sapiens, UniProt Q03431); assay: cAMP-efficacy assay in Saos-2 cells; assay type: cell-based; settings: for potency compared to linear / non-stabilized counterparts, in words / EC50 / pEC50 ± SEM: cAMP; for EC50 / pEC50 ± SEM: 100 μM IBMX, 37° C. 15 min, suffix of label = salt tested; for Emax ± SEM: relative effect to the control (SEQ ID NO: 32)
# T1 construct: endogenous in cells; host or cells: Saos-2
# T1 sequence (Q03431 27-593): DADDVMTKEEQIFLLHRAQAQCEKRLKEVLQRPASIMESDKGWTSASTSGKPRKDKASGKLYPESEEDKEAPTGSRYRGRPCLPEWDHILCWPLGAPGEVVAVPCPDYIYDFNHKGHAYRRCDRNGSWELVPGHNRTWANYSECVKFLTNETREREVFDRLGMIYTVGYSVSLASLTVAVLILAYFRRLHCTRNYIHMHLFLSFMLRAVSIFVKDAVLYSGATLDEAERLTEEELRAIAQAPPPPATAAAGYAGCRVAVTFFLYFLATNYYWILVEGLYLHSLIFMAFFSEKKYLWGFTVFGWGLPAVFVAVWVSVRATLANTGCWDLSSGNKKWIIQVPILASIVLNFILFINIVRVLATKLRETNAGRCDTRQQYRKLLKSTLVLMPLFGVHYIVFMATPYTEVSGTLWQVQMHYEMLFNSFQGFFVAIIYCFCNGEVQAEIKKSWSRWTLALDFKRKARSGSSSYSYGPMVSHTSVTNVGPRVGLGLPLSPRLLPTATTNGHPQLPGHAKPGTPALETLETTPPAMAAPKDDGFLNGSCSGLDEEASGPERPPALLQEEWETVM
# Summary of the method: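 Saos-2 cells, grown two days after seeding at 50,000 cells/well, were exposed to peptide for 15 min at 37 °C in Tyrode's buffer with 0.1% BSA and 100 μM IBMX. After stopping with cold HCl, cAMP was measured by radioimmunoassay FlashPlate. EC50, pEC50, Hill slope and Emax came from a four-parameter sigmoidal fit.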
# CYP2D6 [2] = molecular target: T2, CYP2D6 (Homo sapiens, UniProt P10635); assay: CYP2D6 inhibition in pooled human liver microsomes; assay type: in vitro ADME; set-up: Pooled human liver microsomes (HLM, final concentration 0.05 mg protein/mL); tissue BD Biosciences 452161; host or cells: pooled human liver microsomes; settings: 10 μM compound, dextrorphan formation rate
# Procedure: Stock solutions of the test compounds (1 mM) were prepared in 50% isopropanol or 20% DMSO. Pooled human liver microsomes (HLM, final concentration 0.05 mg protein/mL) were mixed with phosphate buffer (0.1 M potassium phosphate, pH 7.4), CYP2D6 substrate (dextrometrorphan, 5 μM final concentration) and test compound (10 μM), quinidine (0.5 μM) or vehicle (0.2% DMSO or 0.5% isopropanol). The mixture was preincubated for 5 min at 37° C. prior to initiation of the reaction addition of a NADPH regenerating mixture (Final concentration: 1.25 mM NADP^+, 3.3 mM Glucose-6-phosphate, 3.3 mM MgCL2 and 0.4 U/mL glucose-6-phosphat dehydrogenase). After 5 minutes the reaction was stopped by addition of 0.25 volume stop reagent (94% acetonitrile, 6% acetic acid). Each experiment was performed in duplicate or triplicate.
# The quantification of CYP2D6 product (dextrorphan) was performed by LC/MS/MS. After centrifugation for 5 min at 10.000 g, 40 μL of the supernatant was injected onto a C8 RP-HPLC column (XterraMS, C8, […], 50×2.1 mm). Dextrorphan was eluted by a linear gradient from 0 to 90% acetonitrile in 0.1% formic acid over 4 min using a flow rate of 0.15 ml/min. The concentration of dextrorphan in the reaction mixture was estimated from the peak area of the MS/MS transition (m/z 258.1>199) using an external calibration curve (Table 8).
# The CYP2D6 activity in HLM was calculated as the metabolite formation rate: […]
# Where, v is the formation rate, [metabolite] is the detected concentration of dextrorphan (pmol/mL) at the time (t, min) and [protein] is the protein concentration (mg/mL) in the reaction mixture. The influence of the test compounds on the CYP2D6 activity was calculated as % of the activity measured when incubated with the vehicle. The effect of CYP2D6 inhibitor (quinidine) was included as inhibition control within each batch analysis. A reduction in CYP2D6 activity to less than 70% of the vehicle control was considered significant.
# Saos-2 PTH1R [3] = molecular target: Saos-2 PTH1R (UniProt Q03431); assay: cell-based or functional assay
# CYP2D6 [4] = molecular target: T2, CYP2D6; assay: cell-based or functional assay
# T2 sequence (P10635 whole entry): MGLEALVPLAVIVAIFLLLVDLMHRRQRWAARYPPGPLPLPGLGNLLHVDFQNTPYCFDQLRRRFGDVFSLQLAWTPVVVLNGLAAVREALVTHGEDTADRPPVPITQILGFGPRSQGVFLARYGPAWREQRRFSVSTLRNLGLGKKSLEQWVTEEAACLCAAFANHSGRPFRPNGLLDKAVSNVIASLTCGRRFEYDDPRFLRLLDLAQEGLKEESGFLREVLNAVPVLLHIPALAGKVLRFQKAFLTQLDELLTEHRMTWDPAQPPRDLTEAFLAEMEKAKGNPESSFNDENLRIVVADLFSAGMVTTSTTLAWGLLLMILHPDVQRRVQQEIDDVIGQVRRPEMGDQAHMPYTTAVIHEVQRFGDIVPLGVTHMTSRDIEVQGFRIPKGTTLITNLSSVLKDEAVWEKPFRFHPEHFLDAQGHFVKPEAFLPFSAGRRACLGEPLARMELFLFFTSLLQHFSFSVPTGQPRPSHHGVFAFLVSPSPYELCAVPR
Molecule,EC50 (Saos-2 PTH1R [1]),Emax ± SEM (Saos-2 PTH1R [1]),CYP2D6 activity (% of vehicle) (CYP2D6 [2]),pEC50 ± SEM (Saos-2 PTH1R [1]),"CYP2D6 activity (% of vehicle), dextrorphan formation rate in human liver microsomes, 10 µM peptide (CYP2D6 [4])",other results
CC[C@H](C)[C@H](NC(=O)[C@H](CCC(=O)O)NC(=O)C(C)(C)NC(=O)[C@@H](NC(=O)C1(N)CCCC1)C(C)C)C(=O)N[C@@H](CCC(N)=O)C(=O)N[C@@H](CC(C)C)C(=O)N[C@@H](CCSC)C(=O)N[C@@H](Cc1c[nH]cn1)C(=O)N[C@@H](CC(N)=O)C(=O)N[C@@H](CC(C)C)C(=O)NCC(=O)N[C@H]1CCCCNC(=O)C[C@@H](C(N)=O)NC(=O)[C@H](CC(N)=O)NC(=O)[C@H](CC(C)C)NC(=O)[C@H](Cc2c[nH]cn2)NC1=O [SEQ ID NO: 34] (H-[Ac5c]V[Aib]EIQLMHNLGKHLND-NH2; lactam 13-17),214 nM,1.12 ± 0.09,107 % of vehicle,,,"potency compared to linear / non-stabilized counterparts, in words (Saos-2 PTH1R [1]): significantly higher potency; potency compared to linear / non-stabilized counterparts, in words (Saos-2 PTH1R [1]; listed as 34): increased potencies; potency compared to linear / non-stabilized counterparts, in words (Saos-2 PTH1R [1]; listed as SEQ ID NO:34): strikingly higher potency"
CC[C@H](C)[C@H](NC(=O)[C@H](CCC(=O)O)NC(=O)[C@H](CO)NC(=O)[C@@H](NC(=O)[C@@H](N)CO)C(C)C)C(=O)N[C@@H](CCC(N)=O)C(=O)N[C@@H](CC(C)C)C(=O)N[C@@H](CCSC)C(=O)N[C@@H](Cc1c[nH]cn1)C(=O)N[C@@H](CC(N)=O)C(=O)N[C@@H](CC(C)C)C(=O)NCC(=O)N[C@H]1CCCCNC(=O)C[C@@H](C(N)=O)NC(=O)[C@H](CC(N)=O)NC(=O)[C@H](CC(C)C)NC(=O)[C@H](Cc2c[nH]cn2)NC1=O [SEQ ID NO: 36],,,79 % of vehicle,inactive,,
"CC[C@H](C)[C@H](NC(=O)[C@H](CCC(=O)O)NC(=O)[C@H](CO)NC(=O)[C@@H](NC(=O)[C@@H](N)CO)C(C)C)C(=O)N[C@@H](CCC(N)=O)C(=O)N[C@@H](CC(C)C)C(=O)N[C@@H](CCSC)C(=O)N[C@@H](Cc1c[nH]cn1)C(=O)N[C@@H](CC(N)=O)C(=O)N[C@@H](CC(C)C)C(=O)NCC(=O)N[C@@H](CCCCN)C(=O)N[C@@H](Cc1c[nH]cn1)C(=O)N[C@@H](CC(C)C)C(=O)N[C@@H](CC(N)=O)C(=O)N[C@@H](CO)C(N)=O [SEQ ID NO: 37, reference compound]",,,41 % of vehicle,inactive,,
"CC[C@H](C)[C@H](NC(=O)[C@H](CCC(=O)O)NC(=O)C(C)(C)NC(=O)[C@@H](NC(=O)C1(N)CCCC1)C(C)C)C(=O)N[C@@H](CCC(N)=O)C(=O)N[C@@H](CC(C)C)C(=O)N[C@@H](CC(C)C)C(=O)N[C@@H](Cc1c[nH]cn1)C(=O)N[C@@H](CCC(N)=O)C(=O)N[C@@H](CCCCNC(=N)N)C(=O)N[C@@H](C)C(=O)N[C@H]1CCNC(=O)C[C@@H](C(N)=O)NC(=O)[C@H](CC(N)=O)NC(=O)[C@H](CC(C)C)NC(=O)[C@H](Cc2c[nH]c3ccccc23)NC1=O [SEQ ID NO: 41, H-Ac5c-Val-Aib-Glu-Ile-Gln-Leu-Leu-His-Gln-Har-Ala-Dab( )-Trp-Leu-Asn-Asp( )-NH2] (H-[Ac5c]V[Aib]EIQLLHQ[hArg]A[Dab]WLND-NH2; lactam 13-17 (inferred))",64.6 nM,0.99 ± 0.02,82 % of vehicle,,,
H-Ac5c-Val-Aib-Glu-Ile-Gln-Leu-Met-His-Gln-Har-Ala-Glu( )-Trp-Leu-Asn-Lys( )-NH2 (peptide),,,,,99 % of vehicle,"Emax, cAMP efficacy assay in Saos-2 cells (8T, trifluoroacetate salt) (relative to control (SEQ ID NO: 32)) (Saos-2 PTH1R [3]): 1.07; pEC50, cAMP efficacy assay in Saos-2 cells (8T, trifluoroacetate salt) (Saos-2 PTH1R [3]): 7.94 -log(M)"
H-Ac5c-Val-Aib-Glu-Ile-Gln-Leu-Met-His-Gln-Har-Ala-Lys( )-Trp-Leu-Asn-Asp( )-OH (peptide),,,,,89 % of vehicle,"Emax, cAMP efficacy assay in Saos-2 cells (4T, trifluoroacetate salt) (relative to control (SEQ ID NO: 32)) (Saos-2 PTH1R [3]): 1.11; pEC50, cAMP efficacy assay in Saos-2 cells (4T, trifluoroacetate salt) (Saos-2 PTH1R [3]): 7.42 -log(M)"
